Like-named read-outs stand apart in the source and are kept apart here.
Assays:
[1] = Metabolic stability in liver microsomes, rat; type: in vitro ADME; conditions: low value = metabolically stable
Method: (§1) Also the metabolic stability in liver microsomes was tested for some compounds.

[2] = tested on: L5/L6 spinal nerve ligation; test: Spinal nerve ligation model of neuropathic pain; type: in vivo, male Sprague-Dawley rats; conditions: s.c.
Method: Spinal nerve ligation of the L5/L6 nerve was done as originally described by Kim and Chung, using male Sprague-Dawley rats. Allodynia was assessed by applying a light tactile stimulus (Von Frey hairs) to the plantar surface of the surgical paw until the 50% threshold is established. A positive response is recorded if the paw is sharply withdrawn. Eight VonFrey hairs were used (3.61, 3.84, 4.08, 4.31, 4.56, 4.74, 4.93 and 5.18).

ERβ = ERβ (Homo sapiens, UniProt Q92731); test: R-SAT functional assay, ERβ; type: cell-based; design: expressed in transfected cells; host or cells: transient transfection; conditions: NIH3T3, read-out: R-SAT Erβ % Eff
Source text: (§2) R-SAT® (Receptor Selection and Amplification Technology) is a cell-based functional assay that allows one to monitor receptor-dependent proliferative responses and has been described elsewhere. […] This process is achieved by partial cellular transformation via loss of contact inhibition and growth factor dependency. Monitoring is achieved by transfecting the cells with a β-galactosidase reporter gene vector whose expression is under a constitutively active promoter. Briefly, NIH-3T3 fibroblasts were plated overnight in 96-wells plates in DMEM 10% calf serum (Hyclone) and grown to 60-70% confluency prior to transfection. Transient transfections were performed using Polyfect (Qiagen) according to manufacturer's instructions. Typically a transfection mix would consist of the receptor and the β-galactosidase expression vectors. Sixteen hours post-transfection, cells were incubated with different doses of ligand in DMEM containing 30% Ultraculture (Hyclone) and 0.4% calf serum (Hyclone) to generate a dose response curve. […] Plates were read using a microplate reader at 420 nm. Data from R-SAT® assays were fit to the equation: r=A+B(x/(x+c)), where A=minimum response, B=maximum response minus minimum response, c=EC50, r=response, and x=concentration of ligand. Curves were generated using the curve fitting softwares Excel Fit and GraphPad Prism (San Diego, Calif.). Luciferase Reporter Gene Assay

[3] = Microsomal bioavailability (Table 2); type: in vitro ADME; conditions: read-out: Microsomal bioavailability F (%)
[4] = Unidirectional permeability across MatTek EpiOral buccal tissue; type: in vitro ADME, human
Method: EpiOral→tissues plated in 24-well plates were obtained from MatTek Corporation (Ashland, Mass., USA). The assay buffer was Dulbeccos' Phosphate Buffered Saline (DPBS) without Ca & Mg chloride, pH 7.4. Each test compound was co-dosed with the two control compounds. Targeting dosing concentrations were 10 μM for each test compound and 100 μM for the two control compounds. Prior to the permeability assay onset, the tissues were preequilibrated in a pre-warmed EpiOral assay medium for one hour at 37° C. in a 5% CO2 incubator. The EpiOral assay medium was aspirated after the pre-equilibration, and the tissues were washed twice with the DPBS buffer. The receiver chambers were filled with 0.75 mL of the DPBS buffer, while the donor chambers received 0.4 mL of the dosing solutions. The assay plates were placed at 37° C. in a 5% CO2 incubator. The receiver samples (200 μL) were collected at 30, 60, and 120 minutes, and replaced with an equal volume of fresh pre-warmed receiver buffer (except for the last time point of 120 minutes). The donor sides were sampled at 0 and 120 minutes. The test compounds were then analyzed using LC-MS/MS.

[5] = Initial toxicity studies, in vitro and in vivo
[6] = Bioavailability after intravenous, oral and sublingual administration in rat; conditions: in vivo, rats
Method: Similarly to the Example above, Compound 8 was also administered to rat intravenously, orally and sublingual. Also the prodrug of Compound 8, i.e. Compound 9, was administered. The bioavailability (% F) indicated for the prodrug Compound 9 is the results of measurements of the bioavailability for Compound 8, which Compound 9 is converted into upon administration. AUC 0-4 was used for calculation of the bioavailability.

[7] = Metabolic stability in liver microsomes, human; type: in vitro ADME; conditions: low value = metabolically stable
Method: as §1

ERα [8] = target: T1, ERα (Homo sapiens, UniProt P03372); test: R-SAT functional assay, ERα; type: cell-based; design: expressed in transfected cells; host or cells: NIH-3T3 fibroblasts, transient transfection; conditions: NIH-3T3 cells; for EC50: na = not active, read-out: R-SAT Erα pEC50 (converted)
T1 sequence (P03372 1-595): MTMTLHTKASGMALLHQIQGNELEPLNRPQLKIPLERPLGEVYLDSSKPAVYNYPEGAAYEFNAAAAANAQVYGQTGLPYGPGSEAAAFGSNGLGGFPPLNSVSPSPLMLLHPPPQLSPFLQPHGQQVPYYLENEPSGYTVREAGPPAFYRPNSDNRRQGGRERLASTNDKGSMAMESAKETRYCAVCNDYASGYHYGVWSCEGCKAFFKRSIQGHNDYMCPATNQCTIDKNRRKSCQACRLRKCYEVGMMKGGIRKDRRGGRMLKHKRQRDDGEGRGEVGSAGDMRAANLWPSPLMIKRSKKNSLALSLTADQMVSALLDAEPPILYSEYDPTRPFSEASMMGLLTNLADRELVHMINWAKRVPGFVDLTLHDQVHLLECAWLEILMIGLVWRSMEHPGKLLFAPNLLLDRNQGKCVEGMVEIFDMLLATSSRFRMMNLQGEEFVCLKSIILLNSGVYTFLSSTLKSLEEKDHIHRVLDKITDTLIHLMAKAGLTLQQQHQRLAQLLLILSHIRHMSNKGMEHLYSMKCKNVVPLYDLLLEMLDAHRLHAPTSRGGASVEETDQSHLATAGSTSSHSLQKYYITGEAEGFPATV
Source text: as §2

ERα [9] = target: T1, ERα; test: Luciferase reporter gene assay (3*ERE) in HEK293 cells, ERα; type: cell-based; design: expressed in transfected cells; host or cells: transient transfection; conditions: 48 hours; for EC50: na = not active, read-out: Luciferase Erα pEC50 (converted)
Method: HEK293 cells were grown to 70% confluency in DMEM containing 10% calf serum (Hyclone) prior to transfection. On the day of transfection (day 1), expression vectors for ERα or ERβ were cotransfected along a construct containing a synthetic 3*ERE upstream of the luciferase gene (Panomics), using Polyfect (Qiagen) per manufacturer's recommendations (ERE being estrogen response element). Sixteen hours post-transfection, cells were incubated in serum free DMEM. […] Cells extracts were then obtained by lyzing and the Luciferase activity measured, all of these steps performed using a commercially available kit (Promega).

Sequence of ERβ (Q92731 whole entry, species assumed): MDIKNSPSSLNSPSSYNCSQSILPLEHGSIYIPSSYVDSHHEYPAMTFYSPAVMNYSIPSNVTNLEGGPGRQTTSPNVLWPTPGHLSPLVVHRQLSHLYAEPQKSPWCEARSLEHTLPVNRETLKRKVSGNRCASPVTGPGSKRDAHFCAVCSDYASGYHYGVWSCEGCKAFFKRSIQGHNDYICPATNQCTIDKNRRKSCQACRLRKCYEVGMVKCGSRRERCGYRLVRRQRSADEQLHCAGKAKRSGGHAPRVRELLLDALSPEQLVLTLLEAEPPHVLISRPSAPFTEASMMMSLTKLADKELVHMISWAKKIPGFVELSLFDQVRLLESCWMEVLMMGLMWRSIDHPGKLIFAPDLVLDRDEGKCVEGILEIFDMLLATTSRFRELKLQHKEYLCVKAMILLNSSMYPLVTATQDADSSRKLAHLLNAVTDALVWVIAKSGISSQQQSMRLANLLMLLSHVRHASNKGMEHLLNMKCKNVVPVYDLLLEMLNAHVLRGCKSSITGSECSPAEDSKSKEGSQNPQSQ

SMILES | microsomal CLint [1] | allodynia (Von Frey 50% threshold) [2] | Emax (ERβ) | Microsomal bioavailability (predicted from microsomes) [3] | permeability classification in MatTek EpiOral buccal tissue [4] | tolerability in initial toxicity studies [5] | bioavailability ([6]; po, Compound 8 dosed orally, read-out: oral bioavailability) | bioavailability ([6]; Compound 8 dosed sublingually, read-out: sublingual bioavailability) | microsomal CLint [7] | R-SAT Erα % Eff (ERα [8]) | EC50 (ERα [8]) | Luciferase Erα % Eff (ERα [9]) | EC50 (ERα [9])
Oc1ccc(C2(c3ccccc3F)CCC(F)(F)CC2)cc1 [Compound 8, 4-(4,4-Difluoro-1-(2-fluorophenyl)cyclohexyl)phenol] | 150 µL/min/mg | reverses allodynia | 69% | 4.2% | highly permeable | well tolerated | ~8% | 79% | 11 µL/min/mg | 62% | 1000 nM | 32% | 631 nM
Oc1ccc(C2(c3cccc(F)c3Cl)CCCCC2)cc1 [Compound 623] | – | – | 89% | – | low permeability | – | – | – | – | 45% | 398 nM | 15% | 398 nM
Oc1ccc(C2(c3ccccc3Cl)CCCCC2)cc1F [Compound 957] | 450 µL/min/mg | – | 94% | – | low permeability | – | – | – | 20 µL/min/mg | 58% | 631 nM | 13% | –

From patent publication US9061981B2, “Diphenyl substituted cyclohexane derivatives, useful as modulators of the estrogen receptors beta” (Acadia Pharmaceuticals Inc., priority 2011, dated 2015)
